# Data taken from patent US20120213707A1, “Riboflavin Based Aerosol and Use as Placebo in Trials” (MPEX PHARMACEUTICALS, INC., priority 2009, published 2012).
# Tests used:
# Beagle dogs = experiment: 28-day aerosolized liquid inhalation (oronasal) toxicity study in Beagle dogs; format: in vivo
# Text: The objective of the study was to determine the toxicity and toxicokinetic profile of the test article, Riboflavin 5′-phosphate, following inhalation (oronasal) administration to dogs for 28 consecutive days.
# Test article: riboflavin 5′-phosphate sodium salt hydrate; alternate identity: vitamin B2 phosphate; description: yellow crystals; potency: 74%. Vehicle article: saline (0.9% (w/v) NaCl for injection); description: clear colorless solution. Exposure method: inhalation by oronasal face mask exposure.
# (§1) The test (0.5 mg/mL, 2.0 mg/mL, 5.0 mg/mL) and/or vehicle control formulations (0 mg/mL) for each group were prepared fresh daily on each day by dissolving the test article in saline. All prepared test article formulations were protected from light and kept at room temperature (RT).
# (§2) Duration of treatment: 28 days. Test system: Dog (Canis familiaris); strain: Beagle.
# (§3) The aerosol was produced by metering the flow of the test and control article formulations to 3 clinical nebulizers (Sidestream). The aerosol produced was discharged through a 40 mm diameter tube into a flow-past inhalation exposure system. The airflow rate through the exposure system was monitored and recorded manually during the aerosol generation. Airflow to the exposure system was controlled by the absolute volume of air supplying the aerosol generators using variable area flow meters. Control of the aerosol exhaust flow from the animal exposure system was achieved using an exhaust valve. The system provided a minimum of 6 L/min of aerosol to each animal exposure position and the inlet and outlet airflows were balanced to ensure that there was no dilution of the generated aerosol by air drawn from the environment. Any minor variations in flow were buffered by a balloon reservoir. An equal delivery of aerosol to each exposure position was achieved by employing a distribution network that was identical for each individual exposure position attached to the system.
# Mortality checks were performed once daily during the acclimation and pre-treatment periods, and twice a day (am and pm) during the treatment period of the study.
# Cage-side clinical signs (ill health, behavioral changes etc.) were recorded for all animals once daily during the acclimation period and twice daily (pre-exposure and post-exposure) during the treatment period except on detailed clinical examination days. A detailed clinical examination of each dog was performed (replacing a cage-side clinical sign observation in the morning) at least once pretreatment, one day prior to Day 1, weekly during the treatment period and before necropsy.
# Body weights were recorded for all animals at least once prior to group assignment, and approximately one week prior to initiation of treatment. Body weights were recorded for all animals one day prior to Day 1 and weekly during the treatment period, as well as terminally.
# Individual daily food intake was recorded for all animals during the last week of the pretreatment period and throughout the treatment period.
# Funduscopic (indirect ophthalmoscopy) and biomicroscopic (slit lamp) examinations were performed for all animals, once during the pre-treatment period and during Week 4 of the treatment period.
# Electrocardiograms (limb leads I, II and III, and augmented leads aVR, aVL and aVF) were obtained for all dogs once during the pre-treatment period and at least 90 minutes (between 90-120 minutes) postexposure on Days 1 and during Week 4 of the treatment period. In addition, indirect blood pressure was measured on the same occasions as ECG using a tail cuff. The tracings were assessed for gross changes indicative of cardiac electrical dysfunction and the potential presence of abnormalities involving heart rate (lead II), sinus and atrioventricular rhythm or conductivity were determined. Heart rate, PR interval, QRS duration, QT and QTc intervals values were tabulated for incorporation into the study report. […]
# [1] = Toxicokinetics in dogs: plasma riboflavin 5′-phosphate and metabolite riboflavin after aerosolized doses for 28 days; format: in vivo, Dog (Canis familiaris)
# Experimental: as §2
# A series of 9 blood samples (approximately 2.0 mL each) were removed from each dog on each of Days 1 and 28 of the treatment period. For this purpose, each dog was bled by venipuncture and the samples were collected into tubes containing the anticoagulant, Sodium Heparin. Tubes were placed immediately on wet ice pending processing within 30 minutes of collection. On each occasion, samples were collected at pre-dose, immediately post exposure (IPD), 15 and 30 minutes, 1, 2, 4, 6 and 24 hours post exposure. Following collection, the samples were centrifuged (approximately 4° C.) and the resulting plasma was recovered and stored frozen at ITR (approximately −20° C.) in labeled tubes protected from light pending shipment (on dry ice).
# [2] = Stability of dosing formulations in saline; format: physicochemical; settings: saline formulations 0.5-5.0 mg/mL, refrigerated at least 48 hours or room temperature on day of preparation
# Experimental: as §1
# Analyses determined that all formulations were within acceptance criteria ranges (±10%). The formulation concentrations ranged between 94.4 and 106.4% of nominal concentrations and therefore considered acceptable.
# Analyses determined that all formulations were within acceptance criteria ranges (±10%). The formulation concentrations ranged between 94.9 and 104.5% of nominal concentrations and were therefore considered acceptable. […]
# [3] = Aerosol particle size distribution, dog oronasal exposure system (7-Stage Mercer Cascade Impactor); format: physicochemical
# Text: as §3
# Determinations of aerosol concentration, particle size distribution, oxygen concentration, relative humidity and temperature were performed on test atmosphere samples collected from a representative port of the exposure system, with a collection sample flow-rate of 1 L/min. The sample flow rates were precisely controlled using variable area flow meters that were calibrated before use using a primary airflow calibrator. The absolute volume of each aerosol concentration sample was measured using a wet type gas meter.
# The distribution of particle size in the generated aerosols for Groups 2 to 4 were measured weekly during the treatment period by collecting samples into a 7-Stage Mercer Cascade Impactor and the particle size of aerosolized Riboflavin 5′-phosphate was determined using a validated analytical. The distribution of particle size in the generated aerosols for Group 1 were estimated once weekly by gravimetric determination. The MMAD and the Geometric Standard Deviation (GSD) were calculated based on the results obtained from the impactor using a log-probit transformation.
# [4] = Group 2 Low Dose, 0.5 mg/mL formulation
# [5] = Group 3 Mid Dose, 2.0 mg/mL formulation
# [6] = Group 4 High Dose, 5.0 mg/mL formulation
smiles,measurement,setting,value
Cc1cc2nc3c(=O)[nH]c(=O)nc-3n(C[C@H](O)[C@H](O)[C@H](O)COP(=O)(O)O)c2cc1C [riboflavin 5′-phosphate],No Observed Effect Level (NOEL),"Beagle dogs; Beagle dogs, oronasal inhalation up to 60 minutes/day, 28 consecutive days, high-dose group",1.341 mg/kg/day
same,tolerability,"Beagle dogs; beagle dogs, inhalation exposure 28 days",well tolerated
same,blood pressure,"Beagle dogs; dog, in vivo",no changes in blood pressure that were considered related to treatment
same,clinical chemistry,"Beagle dogs; dog, in vivo",no changes noted in clinical chemistry parameters that were considered to be treatment-related
same,clinical signs,"Beagle dogs; dog, in vivo",no clinical signs related to treatment
same,coagulation times,"Beagle dogs; dog, in vivo",unaffected by treatment
same,electrocardiogram wave forms,"Beagle dogs; dog, in vivo",unaffected by treatment
same,food consumption,"Beagle dogs; dog, in vivo",no changes noted in food consumption that were considered to be treatment-related
same,hematology,"Beagle dogs; dog, in vivo",no changes noted in hematology parameters that were considered to be treatment-related
same,macroscopic findings,"Beagle dogs; dog, in vivo",no macroscopic findings that were considered to be test article related
same,microscopic findings,"Beagle dogs; dog, in vivo",no evidence of test article-related histopathological finding
same,ophthalmology,"Beagle dogs; dog, in vivo",no ocular changes noted that were considered to be treatment-related
same,organ weights,"Beagle dogs; dog, in vivo",slight increase in spleen weight
same,"respiratory parameters (respiratory rate, tidal volume and minute volume)","Beagle dogs; dog, in vivo",no changes in respiratory parameters evaluated
same,urinalysis,"Beagle dogs; dog, in vivo",no changes in any of the urinalysis parameters evaluated that were considered affected by treatment
same,adverse effects,"Beagle dogs; dog, in vivo, 1.34 mg/kg/day",no adverse effects were observed
same,mortality,"Beagle dogs; dogs, 28 days inhalation",no premature deaths
same,accumulation following repeated dosing,[1]; 28 days,no accumulation
same,gender related difference of riboflavin plasma exposure,"[1]; Day 1, single administration",no observed apparent gender related difference
same,dose dependence of riboflavin plasma exposures (Cmax and AUC(0-T)),"[1]; both sexes, Day 1",increased as a function of the administered doses
same,dose dependence of riboflavin plasma exposures (Cmax and AUC(0-T)),"[1]; both sexes, Day 28",increased as a function of the administered doses
same,dose proportionality of riboflavin exposures (Cmax and AUC(0-T)),"[1]; both sexes, overall",appeared to be dose proportional
same,gender difference in riboflavin exposure,[1]; overall,no gender difference in riboflavin exposure
same,riboflavin 5′-phosphate concentrations in plasma of treated animals,[1]; single or repeated exposures,detected in only a single treated animal
same,formulation stability,[2]; dog study,stable
same,formulation stability,[2]; rat study,stable
same,% of particles <3.1 μm,[3]; [4],91.1%
same,MMAD,[3]; [4],1.1 μm
same,% of particles <3.1 μm,[3]; [5],93.3%
same,MMAD,[3]; [5],1.1 μm
same,% of particles <3.1 μm,[3]; [6],87.2%
same,MMAD,[3]; [6],1.2 μm
